In patent US9849134B2, “Method of improving cognition and social behavior in humans having deficits therein due to neurodegenerative disorders and compounds and compositions therefor” (The Board of Trustees of the Leland Stanford Junior …, priority 2014, dated 2017):
“Also recorded” adds a separate entry of the source. Structures can show the parent of a compound that is named as a salt. Where two headings read alike, the source gives them in different places. Each block holds one molecule with its values, some of them ahead of it. * marks the point of attachment. Myristoyl = CCCCCCCCCCCCCC(=O)*

What was measured:
C57BI/6 mice = settings: single dose 1 mg/kg
mice and rats = settings: cited from earlier work
β2-ADR KO mice = settings: 3 mg/kg
Method: (§1) Behavioral testing. Social recognition was tested in two different tests: the 3-chamber social test developed by Nadler et al and the in-home cage social discrimination task developed by Macbeth et al. To differentiate between social recognition and recognition of non-social odors/objects non-social odor discrimination tests (olfactory habituation/dishabituation and olfactory recognition test) and an object recognition test were used.

pCREB [1] = test: Western blot of pCREB in C57B1/6 mice; format: in vivo
Method: (§2) Molecular analyses. Immunohistochemistry was used to assess c-Fos, tyrosine hydroxylase (TH) and β1-ADR. The quantitative analysis of stained cells was done in different brain regions according to the Mouse Brain Atlas. Cell counting was achieved using the unbiased-stereologic method. The total number of positive cells was quantified with the optical fractionator method using the StereoInvestigator software (MBF Bioscience, Williston, Vt., USA). The counting criteria were determined so as to obtain a mean coefficient of error ≦0.10. Analysis of pCREB was performed by western blot.
We then tested whether pharmacological modulation of β1-ADR affects CREB phosphorylation in the MeA in the context of social learning.

C57B1/6 mice [2] = test: Social recognition tests (in-home cage social discrimination, 3-chamber) in C57B1/6 mice; format: in vivo
Method: (§3) Behavioral testing. […] Drug treatment. […] Betaxolol was injected sub-cutaneously (1 mg/kg) or in the MeA (30 nmole/side). PKI 14-22 amide was dissolved in 30% acetonitrile and injected in the MeA (2.75 nmole/side).

c-Fos = system: c-Fos
Method: as §2
Brain regions involved in social recognition have already been defined. Among them are the lateral septum, prefrontal cortex and MeA. […] We used c-Fos as a marker of neuronal activity and compared its expression in a group of C57B1/6 mice after social learning with a group of mice after both social learning and social recognition.

C57B1/6 mice [3] = system: C57B1/6 mice
Method: as §1
We assessed the ability of C57B1/6 mice to recognize a previously-met conspecific after an acute subcutaneous injection of various doses of a selective β1-ADR antagonist, betaxolol (0.01, 0.1 and 1 mg/kg).

β-arrestin pathway = β-arrestin pathway activation; format: cell-based
[4] = system: Thy1-hAPP^Lond/Swe+ line transgenic mice; test: Fear conditioning test in Thy1-hAPP^Lond/Swe+ mice; format: in vivo; settings: 0.3 and 1 mg/kg s.c., chronic, after 2.5 months
5xFAD mice = test: Chronic dosing in 5xFAD mouse model of AD (memory, Morris-Water Maze, microglia, plaques); format: in vivo
[5] = system: Thy1-hAPP^Lond/Swe+ line transgenic mice; test: Activity chamber test (locomotor activity) in Thy1-hAPP^Lond/Swe+ mice; format: in vivo; settings: 0.3 and 1 mg/kg s.c., chronic, after 1 month
[6] = system: humans with heart failure; settings: 200 mg twice daily for 2-12 months; cited from earlier work
[7] = system: Thy1-hAPP^Lond/Swe+ mice (APP); test: Social recognition test in APP mouse model of AD; format: in vivo
Method: as §3

wild type mice = test: Cardiac safety after chronic treatment in wild type mice; format: in vivo; settings: 3 months
Thy1-APP^Lond/Swe+ mice = test: Working memory in Thy1-APP^Lond/Swe+ mice; format: in vivo; settings: acute s.c. 3 mg/kg
[8] = Xamoterol concentration in plasma and brain after s.c. injection; format: in vivo; settings: mice; for concentration at 30 min / concentration at 1 h / concentration at 2 h: C57Bl/6, mouse, sc, 3 mg/kg s.c.
Method: Mice are euthanized at 3, 15, 30, 60, 120, 240 and 360 minutes after drug administration. Blood is drawn by cardiac puncture and collected in heparinized tubes. Plasma is immediately separated by centrifugation and stored at −80° C. until assay. For tissue distribution studies, tissue samples from the brain, heart, kidney, liver and spleen are collected 60 and 120 minutes after drug administration. The tissue samples are homogenized using 0.9% saline at a ratio of 1:2. The homogenates are stored at −80° C. until analysis. […] 2(2): p.

pCREB [9] = test: Western blot of pCREB in medial amygdala of APP mice and WT controls; format: in vivo
Method: as §2, with “Immunohistochemistry was used to assess c-Fos, tyrosine hydroxylase (TH) and β1-ADR.” left out, “blot. […] It was reported that in Alzheimer's disease several phosphorylated proteins and transcription factors are preferentially located in the cytoplasm (vs. the nucleus) and are thus inefficient in inducing expression of genes important for learning and memory.” for “blot.”

[10] = 1 mg/kg, 20 minutes prior to learning phase

Molecule: CC(C)NCC(O)COc1ccc(CCOCC2CC2)cc1 (stereo not drawn) [betaxolol]
- Contextual memory (C57BI/6 mice): impairment of contextual memory
- Spatial navigation retrieval (mice and rats; wild-type mice and rats): produces spatial navigation retrieval deficit
- Social recognition in β2-ADR KO mice (β2-ADR KO mice): effectively impaired social recognition abilities
- pCREB expression in MeA after 5 minutes of social interaction (pCREB [1]; 1 mg/kg, 60 minutes before social learning): significantly decreased
- Social recognition after injection in the MeA (C57B1/6 mice [2]; 30 nmole in the MeA): impairs social recognition
- Social recognition: preference for novel intruder over familiar one (C57B1/6 mice [2]; 0.01 mg/kg s.c.): showed this preference
- Social recognition: preference for novel intruder over familiar one (C57B1/6 mice [2]; 0.1 mg/kg s.c.): did not show a preference
- Social recognition: preference for novel intruder over familiar one (C57B1/6 mice [2]; 1 mg/kg s.c.): did not show a preference
- Long-term social memory, 24 hours after learning phase (C57B1/6 mice [2]; [10]): impaired long-term social memory
- Short term social recognition, dosing before learning phase (C57B1/6 mice [2]; [10]): impaired short term social recognition
- Social recognition, dosing before retrieval phase (C57B1/6 mice [2]; 1 mg/kg, 30 minutes prior to retrieval phase): did not impair social recognition
- Social recognition in 3-chamber test (C57B1/6 mice [2]; 1 mg/kg, systemic injection prior to learning phase): impairs social recognition
- Social learning: preference for unfamiliar mouse over empty cup (C57B1/6 mice [2]; 0.01 to 1 mg/kg): did not affect social learning
- Number of c-Fos positive cells in the MeA (c-Fos; 1 mg/kg prior to social recognition task): decreased the number of c-Fos positive cells in the MeA
- Number of c-Fos positive cells in the thalamus (PV) (c-Fos; injection prior to social recognition task): did not affect the number of c-Fos positive cells in the thalamus
- Percent of β1-ADR cells expressing c-Fos in MeA (c-Fos; vs vehicle-injected mice): significantly reduced
- Ability to recognize a familiar odor or object over a new one (C57B1/6 mice [3]; 1 mg/kg): not affected
- Non-social odor habituation, dishabituation and recognition (C57B1/6 mice [3]; 1 mg/kg): did not impair non-social odor recognition
- Non-social odor recognition (heptanol / heptanol:octanol) (C57B1/6 mice [3]; betaxolol vs vehicle): did not impair non-social order recognition

Molecule: PKI 14-22 amide myristoylated (Myristoyl-SGRTGRRNA-NH2; SMILES CCCCCCCCCCCCCC(=O)N[C@@H](CO)C(=O)NCC(=O)N[C@@H](CCCNC(=N)N)C(=O)N[C@H](C(=O)NCC(=O)N[C@@H](CCCNC(=N)N)C(=O)N[C@@H](CCCNC(=N)N)C(=O)N[C@@H](CC(N)=O)C(=O)N[C@@H](C)C(N)=O)[C@@H](C)O; UniProt P61925 14-22, looked up, fragment) [PKA inhibitor]
- Preference for unfamiliar conspecific over empty cup after injection in the MeA (C57B1/6 mice [2]; 2.75 nmole in the MeA): did not affect
- Social recognition after injection in the MeA (C57B1/6 mice [2]; 2.75 nmole in the MeA): impaired the ability of mice to recognize between a new and familiar conspecific

Molecule: CC(C)NCC(O)c1ccc(O)c(O)c1 (stereo not drawn) [isoprenaline]
- Effect on β-arrestin pathway (β-arrestin pathway): activates both cAMP and β-arrestin pathways

- concentration at 30 min ([8]; brain, read-out: Brain): 168 ± 6.4 ng/mL
- concentration at 1 h ([8]; brain, read-out: Brain): 116 ± 9.1 ng/mL
- concentration at 2 h ([8]; brain, read-out: Brain): 125 ± 7.4 ng/mL
- concentration at 30 min ([8]; plasma, read-out: Plasma): 274 ± 75.9 ng/mL
- concentration at 1 h ([8]; plasma, read-out: Plasma): 45.1 ± 6.1 ng/mL
- concentration at 2 h ([8]; plasma, read-out: Plasma): 4.7 ± 0.7 ng/mL
Molecule: O=C(NCCNCC(O)COc1ccc(O)cc1)N1CCOCC1 (racemic) [xamoterol, 1-p-Hydroxyphenoxy-3-beta-(morpholinocarbonamido)ethyl-amino-2-propanol hydrogen fumarate]
- Cognitive functioning (fear conditioning test) [4]: dose-dependent improvement in cognitive functioning
- Retrieval deficit in mice with NA deficiency (mice and rats; mice with NA deficiency): can be rescued
- pCREB expression in mice brain (pCREB [1]; 3 mg/kg s.c., after 15 minutes): significant increase of pCREB
- pCREB expression in MeA vs baseline (pCREB [1]; 3 mg/kg, 5 min after injection): increased
- Activated microglia and Aβ plaque clearance (5xFAD mice): increased activated microglia and Aβ plaque clearance
- Performance in the Morris-Water Maze (escape latency, time in thigmotaxis) (5xFAD mice): improved
- Declarative memory deficit (5xFAD mice; daily oral 6 mg/kg over 3 months, 6 mg/kg): rescued; also recorded: rescues the declarative and spatial memory deficits
- Hyperactivity phenotype (locomotor activity) [5]: dose-dependent reversal of hyperactivity phenotype
- Side effects of chronic treatment in humans [6]: without any significant side effects
- Social recognition deficit of APP mice ([7]; 3 mg/kg systemic (s.c.), acute, prior to testing): rescued the social recognition deficit
- Preference for unfamiliar intruder over empty cup ([7]; 3 mg/kg, WT and APP mice): did not affect the preference
- Cardiovascular functions (BP, heart rate, EF, FS, HW/BW) (wild type mice; 3 mg/kg s.c., vs vehicle): did not develop pathological changes in cardiac functions; also recorded: did not show significant difference in cardiovascular functions
- Myocardial fibrosis (wild type mice; 3 mg/kg s.c., vs vehicle): did not induce cardiac fibrosis; also recorded: did not show significant difference
- Myocardial structure (Masson's trichrome staining) (wild type mice; 3 mg/kg, s.c.): did not produce changes in myocardial structure
- Working memory deficit (Thy1-APP^Lond/Swe+ mice): rescued; also recorded: rescues working memory and social recognition deficits
- Passage of the BBB [8]: passes the BBB and reach the central nervous system
- Total pCREB in MeA of APP mice after social learning (pCREB [9]; APP mice): no significant increase
- pCREB in MeA of WT littermates after social learning (pCREB [9]; WT animals): induced an increase in pCREB
- Nuclear pCREB level in medial amygdala of APP mice (pCREB [9]; injection prior to social learning, nuclear fraction): significantly higher
- Effect on β-arrestin pathway (β-arrestin pathway): no effect on the β-arrestin pathway
